# US20100130408A1, “USE OF MODIFIED CYCLOSPORINS” (priority 2006, published 2010)
# What was measured:
# TWNT-4 cells = assay: gene expression using real time RT-PCR; format: cell-based, human; settings: 0.5 μM
# Procedure: Analysis of gene expression using real time RT-PCR: Total RNA is prepared from TWNT-4 cells with Trizol reagent (Invitrogen, Carlsbad, Calif., USA), which are maintained in either the presence or absence of NIM811 in 10% FCS for 24 h. cDNA is synthesized from […] RNA with GeneAmp™ RNA PCR (Applied Biosystems, Branchburg, N.J., USA) using random hexamers. Real-time PCR is performed using LightCycler-FastStart DNA Master SYBR Green 1 (Roche, Tokyo, Japan) as described in Nakamuta, et al, Int J. Mol Med (2005) 16(4):631-635. A reaction mixture (20 μl) is used containing LightCycler-FastStart DNA Master SYBR Green 1, 4 mM MgCl2, 0.5 μM of the upstream and downstream PCR primers, and […] of the first strand cDNA as a template. To control for variations in the reactions, all PCRs are normalized against glyceraldehyde-3-phosphate dehydrogenase (GAPDH) expression. The primers which may be used are as follows: 5′-[…]-3′ (forward primer) (SEQ ID NO. 1) and 5′-[…]-3′ (reverse primer)(SEQ ID NO. 2) for human type I collagen a1 chain (GenBank™ accession number NM-000088) (21); 5′-[…]-3′ (forward primer)(SEQ ID NO. 3) and 5′-[…]-3′ (reverse primer) for human a-SMA (GenBank™ accession number […]); 5′-[…]-3′ (forward primer) and 5′-[…]-3′ (reverse primer) for MMP-1 (GenBank™ accession number NM002421); 5′-[…]-3′ (forward primer) and 5′-[…]-3′ (reverse primer)(SEQ ID NO. 4) for TIMP-1 (GenBank™ accession number NM003254); 5′-[…]-3′ (forward primer)(SEQ ID NO. 5) and 5′-[…]-3′ (reverse primer)(SEQ ID NO. 6) for Smad7 (Quan, et al, J Biol Chem (2005) 80:8079-8085); 5′-[…]-3′ (forward primer)(SEQ ID NO. 7) and 5′-[…]-3′ (reverse primer)(SEQ ID NO. 8) for transforming growth factor □ receptor I (TGFβRI) (Woszcyk et al, Med Sci Monit (2004) 10:C33-C37)).
# HCV = settings: Watashi et al., Hepatology (2003); cited from earlier work
smiles,measurement,setting,value
C/C=C/C[C@@H](C)[C@@H](O)[C@H]1C(=O)N[C@@H](CC)C(=O)N(C)CC(=O)N(C)[C@@H]([C@@H](C)CC)C(=O)N[C@@H](C(C)C)C(=O)N(C)[C@@H](CC(C)C)C(=O)N[C@@H](C)C(=O)N[C@H](C)C(=O)N(C)[C@@H](CC(C)C)C(=O)N(C)[C@@H](CC(C)C)C(=O)N(C)[C@@H](C(C)C)C(=O)N1C [NIM811],enhancement of expression of Smad7,TWNT-4 cells,~2 fold
same,expression of TIMP-1 (mRNA),TWNT-4 cells,did not change
same,increase of expression of MMP-1 (mRNA),TWNT-4 cells,~2 fold
same,reduction of expression of type I collagen (mRNA),TWNT-4 cells,roughly 30%
same,suppression of TGFβRI expression,TWNT-4 cells,~50%
same,replication of HCV in vitro,HCV,suppresses replication of HCV replication in vitro
